27 molecules from patent US12209087B2, “AKT1 modulators” (Alterome Therapeutics, Inc., priority 2022, dated 2025) can be followed below.

One assay deals with T1, full length AKT E17K (Homo sapiens, UniProt P31749, E17K).
T1 construct: host or cells: HEK-293 (ATCC CRL-1573)
T1 sequence (P31749 whole entry E17K): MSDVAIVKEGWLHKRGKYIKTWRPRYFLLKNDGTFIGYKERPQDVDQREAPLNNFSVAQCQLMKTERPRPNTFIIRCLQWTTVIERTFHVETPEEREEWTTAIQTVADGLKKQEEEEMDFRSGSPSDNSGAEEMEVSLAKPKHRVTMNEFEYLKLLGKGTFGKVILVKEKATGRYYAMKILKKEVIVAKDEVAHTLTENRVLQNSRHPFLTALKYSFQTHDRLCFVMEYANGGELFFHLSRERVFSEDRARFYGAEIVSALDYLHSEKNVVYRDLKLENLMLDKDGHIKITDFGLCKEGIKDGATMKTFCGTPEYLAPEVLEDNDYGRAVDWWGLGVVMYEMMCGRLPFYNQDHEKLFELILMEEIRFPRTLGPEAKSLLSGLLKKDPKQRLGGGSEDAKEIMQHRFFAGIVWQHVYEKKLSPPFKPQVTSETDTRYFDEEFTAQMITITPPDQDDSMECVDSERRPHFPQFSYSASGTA
In words: NanoBRET Target Engagement (TE) Assay. The class given is cell-based. To be noted: competitive displacement of tracer in cells, read-out: AKT1 E17K IC50. The method, boiled down:
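Compound and tracer incubated 2 h before luminescence at donor 450 nm and acceptor 600 nm, with extracellular signal inhibited. EC50 by sigmoidal variable-slope regression.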
On the technique in general: Bioluminescence resonance energy transfer reports proximity on the nanometre scale.
Turning to `N#Cc1nccc(NC2CCN(Cc3ccc(-n4c(-c5cccnc5N)nc5ccc(-c6ccccc6C#N)nc54)cc3)CC2)n1` [Example 335, 4-((1-(4-(2-(2-Aminopyridin-3-yl)-5-(2-cyanophenyl)-3H-imidazo[4,5-b]pyridin-3-yl)benzyl)piperidin-4-yl)amino)pyrimidine-2-carbonitrile], the IC50 (usually the concentration that inhibits the measured activity by half) is less than 15 nM.

As to `N#Cc1nccc(NC2CCN(Cc3ccc(-n4c(-c5cccnc5N)nc5ccc(-c6ccc(OCF)cn6)nc54)cc3)CC2)n1` [Example 580, 4-((1-(4-(2-(2-Aminopyridin-3-yl)-5-(5-(fluoromethoxy)pyridin-2-yl)-3H-imidazo[4,5-b]pyridin-3-yl)benzyl)piperidin-4-yl)amino)pyrimidine-2-carbonitrile], the IC50 is less than 15 nM.

Regarding `[2H]C([2H])([2H])Oc1ccc(-c2ccc3nc(-c4nccnc4N)n(-c4ccc(CN5CCC(Nc6ccnc(C#N)n6)CC5)cc4)c3n2)cn1` [Example 637, 4-((1-(4-(2-(3-aminopyrazin-2-yl)-5-(6-(methoxy-d3)pyridin-3-yl)-3H-imidazo[4,5-b]pyridin-3-yl)benzyl)piperidin-4-yl)amino)pyrimidine-2-carbonitrile], the IC50 was less than 15 nM.

For the molecule `[2H]C([2H])(c1ccc(-n2c(-c3cccnc3N)nc3cc(C)c(C)nc32)cc1)N1CCC(Nc2ccnc(C#N)n2)CC1` [Example 504, 4-((1-((4-(2-(2-Aminopyridin-3-yl)-5,6-dimethyl-3H-imidazo[4,5-b]pyridin-3-yl)phenyl)methyl-d2)piperidin-4-yl)amino)pyrimidine-2-carbonitrile], the IC50 is less than 15 nM.

Regarding `N#Cc1ncc(C(=O)N2CCN(Cc3ccc(-n4c(-c5cccnc5N)nc5ccc(-c6ccccc6)nc54)cc3)CC2)s1` [Example 327, 5-(4-(4-(2-(2-Aminopyridin-3-yl)-5-phenyl-3H-imidazo[4,5-b]pyridin-3-yl)benzyl)piperazine-1-carbonyl)thiazole-2-carbonitrile], the 50% inhibitory concentration (IC50) fell in the range of 60 to 600 nM.

`N#Cc1nccc(NC2CCN(Cc3ccc(-n4c(-c5cccnc5N)nc5ccc(N6CCC6)nc54)cc3)CC2)n1` [Example 460, 4-((1-(4-(2-(2-Aminopyridin-3-yl)-5-(azetidin-1-yl)-3H-imidazo[4,5-b]pyridin-3-yl)benzyl)piperidin-4-yl)amino)pyrimidine-2-carbonitrile]: the IC50 is less than 15 nM.

For `COc1cccc(-c2ccc3nc(-c4cccnc4N)n(-c4ccc(CN5CCC(Nc6ccnc(C#N)n6)CC5)cc4)c3n2)c1` [Example 395, 4-((1-(4-(2-(2-Aminopyridin-3-yl)-5-(3-methoxyphenyl)-3H-imidazo[4,5-b]pyridin-3-yl)benzyl)piperidin-4-yl)amino)pyrimidine-2-carbonitrile], the IC50 is less than 15 nM.

In the case of `N#Cc1nccc(NC2CCN(Cc3ccc(-n4c(-c5cccnc5N)nc5ccc(Br)nc54)cc3)CC2)n1` [Example 485, 4-((1-(4-(2-(2-Aminopyridin-3-yl)-5-bromo-3H-imidazo[4,5-b]pyridin-3-yl)benzyl)piperidin-4-yl)amino)pyrimidine-2-carbonitrile], the IC50 is less than 15 nM.

As for `Cn1cc(-c2ccc3nc(-c4cccnc4N)n(-c4ccc(CN5CCC(Nc6ccnc(C#N)n6)CC5)cc4)c3n2)ccc1=O` [Example 355, 4-((1-(4-(2-(2-Aminopyridin-3-yl)-5-(1-methyl-6-oxo-1,6-dihydropyridin-3-yl)-3H-imidazo[4,5-b]pyridin-3-yl)benzyl)piperidin-4-yl)amino)pyrimidine-2-carbonitrile], the concentration for half-maximal inhibition (IC50) was 15 to 60 nM.

On to `N#Cc1ccnc(NC2CCN(Cc3ccc(-n4c(-c5cccnc5N)nc5ccc(-c6cccc(F)c6)nc54)cc3)CC2)n1` [Example 358, 2-((1-(4-(2-(2-Aminopyridin-3-yl)-5-(3-fluorophenyl)-3H-imidazo[4,5-b]pyridin-3-yl)benzyl)piperidin-4-yl)amino)pyrimidine-4-carbonitrile], for which the IC50 was 15 to 60 nM.

For `N#Cc1nccc(NC2CCN(Cc3ccc(-n4c(-c5cccnc5N)nc5ccc(C6=CCCC6)nc54)cc3)CC2)n1` [Example 453, 4-((1-(4-(2-(2-aminopyridin-3-yl)-5-(cyclopent-1-en-1-yl)-3H-imidazo[4,5-b]pyridin-3-yl)benzyl)piperidin-4-yl)amino)pyrimidine-2-carbonitrile], the IC50 is less than 15 nM.

Still in this assay, the particulars now being: competitive tracer displacement in living cells, read-out: AKT1 E17K IC50.
For the molecule `CC(=O)Nc1cccc(-c2ccc3nc(-c4cccnc4N)n(-c4ccc(CN5CCN(c6cc(C#N)ncn6)CC5)cc4)c3n2)c1` [Example 41, N-(3-(2-(2-Aminopyridin-3-yl)-3-(4-((4-(6-cyanopyrimidin-4-yl)piperazin-1-yl)methyl)phenyl)-3H-imidazo[4,5-b]pyridin-5-yl)phenyl)acetamide], the IC50 was less than 15 nM.

For `N#Cc1ncccc1C(=O)N1CCN(Cc2ccc(-n3c(-c4cccnc4N)nc4ccc(-c5ccccc5)nc43)cc2)CC1` [Example 143, 3-(4-(4-(2-(2-Aminopyridin-3-yl)-5-phenyl-3H-imidazo[4,5-b]pyridin-3-yl)benzyl)piperazine-1-carbonyl)picolinonitrile], the half-maximal inhibitory concentration (IC50) was in the range of 60 to 600 nM.

On to `N#Cc1nccc(N2CC3CCC(C2)N3Cc2ccc(-n3c(-c4cccnc4N)nc4ccc(-c5ccccc5)nc43)cc2)n1` [Example 211, 4-(8-(4-(2-(2-Aminopyridin-3-yl)-5-phenyl-3H-imidazo[4,5-b]pyridin-3-yl)benzyl)-3,8-diazabicyclo[3.2.1]octan-3-yl)pyrimidine-2-carbonitrile], for which the IC50 was less than 15 nM.

`N#Cc1cncc(NC2CCN(Cc3ccc(-n4c(-c5cccnc5N)nc5ccc(-c6ccccc6)nc54)cc3)CC2)n1` [Example 89, 6-((1-(4-(2-(2-Aminopyridin-3-yl)-5-phenyl-3H-imidazo[4,5-b]pyridin-3-yl)benzyl)piperidin-4-yl)amino)pyrazine-2-carbonitrile]: the half-inhibitory concentration (IC50) was less than 15 nM.

In the case of `N#Cc1nccc(N2CCC3(CCN(Cc4ccc(-n5c(-c6cccnc6N)nc6ccc(-c7ccccc7)nc65)cc4)C3)C2)n1` (stereo not drawn) [Example 302, 4-(7-(4-(2-(2-Aminopyridin-3-yl)-5-phenyl-3H-imidazo[4,5-b]pyridin-3-yl)benzyl)-2,7-diazaspiro[4.4]nonan-2-yl)pyrimidine-2-carbonitrile], the 50% inhibitory concentration (IC50) was less than 15 nM.

Turning to `N#Cc1nccc(N2CCN(Cc3ccc(-n4c(-c5cccnc5N)nc5ccc(-c6ccccc6F)nc54)cc3)CC2)n1` [Example 281, 4-(4-(4-(2-(2-Aminopyridin-3-yl)-5-(2-fluorophenyl)-3H-imidazo[4,5-b]pyridin-3-yl)benzyl)piperazin-1-yl)pyrimidine-2-carbonitrile], the 50% inhibitory concentration (IC50) was less than 15 nM.

Regarding `N#Cc1ncnc(N2CCN(Cc3ccc(-n4c(-c5cccnc5N)nc5ccc(N6CCOCC6)nc54)cc3)CC2)n1` [Example 292, 4-(4-(4-(2-(2-Aminopyridin-3-yl)-5-morpholino-3H-imidazo[4,5-b]pyridin-3-yl)benzyl)piperazin-1-yl)-1,3,5-triazine-2-carbonitrile], the IC50 was less than 15 nM.

Take `CC(C)c1ccc2nc(-c3cccnc3N)n(-c3ccc(CN4CCC(Nc5ccnc(C#N)n5)CC4)cc3)c2n1` [Example 286, 4-((1-(4-(2-(2-Aminopyridin-3-yl)-5-isopropyl-3H-imidazo[4,5-b]pyridin-3-yl)benzyl)piperidin-4-yl)amino)pyrimidine-2-carbonitrile]: the concentration for half-maximal inhibition (IC50) is less than 15 nM.

Take `N#Cc1cc(NC2CCN(Cc3ccc(-n4c(-c5cccnc5N)nc5ccc(-c6ccccc6Cl)nc54)cc3)CC2)ncn1` [Example 307, 6-((1-(4-(2-(2-Aminopyridin-3-yl)-5-(2-chlorophenyl)-3H-imidazo[4,5-b]pyridin-3-yl)benzyl)piperidin-4-yl)amino)pyrimidine-4-carbonitrile]: the IC50 lay in the range of 60 to 600 nM.

Consider `C[C@H]1CN(Cc2ccc(-n3c(-c4cccnc4N)nc4ccc(-c5ccccc5)nc43)cc2)CCN1c1ccnc(C#N)n1` [Example 206, (S)-4-(4-(4-(2-(2-Aminopyridin-3-yl)-5-phenyl-3H-imidazo[4,5-b]pyridin-3-yl)benzyl)-2-methylpiperazin-1-yl)pyrimidine-2-carbonitrile], for which the IC50 was 15 to 60 nM.

Take `N#Cc1cncc(N2CCN(Cc3ccc(-n4c(-c5cccnc5N)nc5cccnc54)cc3)CC2)n1` [Example 19, 6-(4-(4-(2-(2-Aminopyridin-3-yl)-3H-imidazo[4,5-b]pyridin-3-yl)benzyl)piperazin-1-yl)pyrazine-2-carbonitrile]: the IC50 lay within 600 to 10000 nM.

With `N#Cc1ncnc(N2C[C@H]3C[C@@H]2CN3Cc2ccc(-n3c(-c4cccnc4N)nc4ccc(-c5ccccc5)nc43)cc2)n1` [Example 272, 4-((1R,4R)-5-(4-(2-(2-aminopyridin-3-yl)-5-phenyl-3H-imidazo[4,5-b]pyridin-3-yl)benzyl)-2,5-diazabicyclo[2.2.1]heptan-2-yl)-1,3,5-triazine-2-carbonitrile], the half-maximal inhibitory concentration (IC50) was less than 15 nM.

For `N#Cc1cc(N2CCN(Cc3ccc(-n4c(-c5cccnc5N)nc5cccnc54)cc3)CC2)ccn1` [Example 13, 4-(4-(4-(2-(2-Aminopyridin-3-yl)-3H-imidazo[4,5-b]pyridin-3-yl)benzyl)piperazin-1-yl)picolinonitrile], the half-maximal inhibitory concentration (IC50) was in the range of 600 to 10000 nM.

As to `N#Cc1ncnc(NC2CCCN(Cc3ccc(-n4c(-c5cccnc5N)nc5ccc(-c6ccccc6)nc54)cc3)CC2)n1` (stereo not drawn) [Example 278, 4-((1-(4-(2-(2-Aminopyridin-3-yl)-5-phenyl-3H-imidazo[4,5-b]pyridin-3-yl)benzyl)azepan-4-yl)amino)-1,3,5-triazine-2-carbonitrile], the 50% inhibitory concentration (IC50) is 15 to 60 nM.

As for `N#Cc1cc(N2CCN(Cc3ccc(-n4c(-c5cccnc5N)nc5ccc(C6CC6)nc54)cc3)CC2)ncn1` [Example 290, 6-(4-(4-(2-(2-Aminopyridin-3-yl)-5-cyclopropyl-3H-imidazo[4,5-b]pyridin-3-yl)benzyl)piperazin-1-yl)pyrimidine-4-carbonitrile], the half-maximal inhibitory concentration (IC50) fell in the range of 15 to 60 nM.

`N#Cc1nccc(N2CCN(Cc3ccc(-n4c(-c5cccnc5N)nc5ccc(-c6ccccc6)nc54)cc3)CC2)n1` [Example 49, 4-(4-(4-(2-(2-Aminopyridin-3-yl)-5-phenyl-3H-imidazo[4,5-b]pyridin-3-yl)benzyl)piperazin-1-yl)pyrimidine-2-carbonitrile]: the IC50 was less than 15 nM.
